“Also recorded” adds a separate entry of the source.
Assays:
[1] = test system: non-secreted Gaussia luciferase; experiment: non-secreted Gaussia luciferase activity in HeLa cell lysates; assay type: biochemical; conditions: for signal intensity with detergent in lysis buffer: detergent 0.1% in lysis buffer unless otherwise indicated, FIGS. 13A-C; for light units (% of those obtained using 0.1% NP40): detergent type and concentration varied, 40 or 120 min, FIGS. 14A, 14B; for light output (% of light units obtained in the absence of salt): salt in lysis buffer, assayed 40 min after lysis buffer, FIG. 3; for stability of luciferase activity between 20 and 90 min after onset of cell lysis: salt and EDTA in lysis buffer, % of light units at 20 min lysis, FIG. 7; for signal intensity: chelator type and concentration varied, 30 min lysis, FIG. 9
Method: HeLa cells stably expressing non-secreted and destabilized Gaussia luciferase were plated onto 96-well plates and incubated overnight. Medium was removed and the cells lysed in 30 ul of lysis buffer per well. The lysis buffer (LB) comprised; 25 mM Tris pH 7.8; 0.1% NP40; 1 mM EDTA plus NaBr at concentrations of (from left to right) 0 mM, 150 mM, 0 mM and 75 mM. Luciferase activity was assayed by injecting 30 ul of an assay buffer (AB) comprising 25 mM Tris pH 7.8; 40 uM Cz plus NaBr at concentrations of (from left to right) 0 mM, 0 mM, 150 mM and 75 mM. Thus, the final concentration of NaBr was 75 mM in all samples, except the no salt controls. Results were expressed as relative light units (RLU) (See FIG. 2).
HeLa cells stably expressing non-secreted and destabilized Gaussia luciferase were plated onto 96-well plates and incubated overnight. Medium was removed and the cells lysed in 20 ul of lysis buffer per well. The lysis buffer comprised; 25 mM Tris pH 8.1, 1 mM EDTA; 0.1% NP40; 63.4 uM Na-Oxalate; 5% Glycerol plus the concentration and type of salt indicated in FIG. 3. Luciferase activity was assayed at 40 min after addition of the lysis buffer (by injecting 60 ul of an assay buffer comprising 25 mM Tris pH 8.1; 1 mM EDTA, 2 mM Ascorbate; 26 uM Cz. Results were expressed as a % of the light units obtained in the absence of salt (see FIG. 3). […]
Luciferase assays were performed as described in Example 4. All salts were present at 150 mM in lysis buffer.
Luciferase assays were performed as described in Example 7, except using the indicated concentrations of salt and EDTA in the lysis buffer. Replicate samples were assayed for luciferase activity at 20, 30, 40 and 90 min after addition of lysis buffer. Results were expressed as a % of the light units obtained after 20 min lysis in the same lysis buffer (see FIG. 7).
Luciferase assays were performed as described in Example 8, except using lysis buffer containing 150 mM NaBr and the indicated concentration of EDTA. Two experiments are shown as separate graphs, with results shown as relative light units (RLU) (see FIGS. 8A and 8B). Within each experiment, the same assay buffer was used for all samples and the lysis buffer differed only in the amount of EDTA as indicated. Replicate samples were assayed for activity of non-secreted Gaussia luciferase at 30 or 120 min after addition of lysis buffer.
Luciferase assays were performed as described in Example 9, except using the indicated type and concentration of chelator and a 30 min lysis period.
HeLa cells expressing destabilised, non-secreted Gaussia luciferase were plated in equal aliquots onto 96-well plates and incubated overnight. Three experiments are shown as separate graphs (FIGS. 13A, 13B and 13C). Within each experiment, the same assay buffer was used for all samples and the lysis buffer differed only in the type of detergent used (0.1% in lysis buffer unless otherwise indicated).
HeLa cells expressing destabilised, non-secreted Gaussia or non-secreted Metridia luciferases were plated in equal aliquots onto 96-well plates and incubated overnight. Medium was removed and the cells lysed in 20 ul of lysis buffer. The detergent type and concentration was varied as indicated.

[2] = test system: non-secreted Metridia luciferase; experiment: non-secreted Metridia luciferase activity in HeLa cell lysates; assay type: biochemical; conditions: for light units (% of those obtained using 0.1% NP40): detergent type and concentration varied, 40 or 120 min, FIGS. 14A, 14B; for increase in activity between 30 and 120 min lysis: salt 150 mM in lysis buffer, % of light units at 30 min lysis, FIG. 26; for signal intensity: chelator in lysis buffer without salt, 30 or 120 min lysis, FIGS. 10A, 10B
Method: HeLa cells stably expressing either non-secreted and destabilized Gaussia or non-secreted and destabilized Metridia luciferase were plated onto 96-well plates and incubated overnight. Medium was removed and the cells lysed in 20 ul of lysis buffer per well. The lysis buffer comprised; 25 mM Tris pH 8.1; 0.1% NP40; 63.4 uM Na-Oxalate; 5% Glycerol plus the concentration and type of salt indicated in FIG. 4. Replicate samples were assayed for luciferase activity after 30 minutes following addition of the lysis buffer by injecting 60 ul of assay buffer. The assay buffer comprised 25 mM Tris pH 7.75; 2 mM Ascorbate; 24 uM Cz. Results were expressed as a % of the light units obtained in the absence of salt (see FIG. 4).
Luciferase assays were performed as described in Example 5 with either non-secreted and destabilized Gaussia luciferase or non-secreted and destabilized Metridia luciferase. Two experiments are shown as separate graphs, with results shown as relative luminescence in counts per second (CPS) (see FIGS. 5A and 5B). Within each experiment, the lysis buffer and assay buffer differed only in the amount and type of salt added as indicated. Replicate samples were analysed at 120 min after addition of the lysis buffer (LB) by injecting 60 ul of assay buffer (AB).
Luciferase assays were performed with non-secreted and destabilized Metridia luciferase as described in Example 5, except the lysis buffer contained no salt and but contained the indicated type and concentration of chelators. Replicate luciferase assay were carried out after a 30 or 120 min lysis period. Results from the 30 min time point were expressed as a % of the light units obtained in the absence of chelator (see FIG. 10A) and results from the 120 min time point were expressed as % of the light units obtained with the same lysis buffer at 30 min (see FIG. 10B).
HeLa cells expressing destabilised, non-secreted Gaussia or non-secreted Metridia luciferases were plated in equal aliquots onto 96-well plates and incubated overnight. Medium was removed and the cells lysed in 20 ul of lysis buffer. The detergent type and concentration was varied as indicated. Luciferase assays were carried out by injecting 60 ul of assay buffer comprising 25 mM Tris pH 8.1; 1 mM EDTA, 2 mM Ascorbate; 24 uM Cz Two experiments are shown, in the first the lysis buffer also contained 5% glycerol, 64 uM sodium oxalate, 150 mM NaBr, 25 mM Tris pH 8.5, 5 mM EDTA, 0.6 mM reduced glutathione, 0.4 mM oxidised glutathione, 75 mM urea (v6) and luciferase activity was assayed at 40 min. In the second experiment, the lysis buffer also contained 2 5 mM Tris pH 8.1, 63.4 uM Na-oxalate, 150 mM NaBr, 5% Glycerol and the luciferase activity was assayed at 120 min. Results were expressed as the % of the light units obtained using 0.1% NP40 (see FIGS. 14A and 14B). […]
HeLa cells expressing destabilised, non-secreted Metridia luciferase were plated in equal aliquots onto 96-well plates and incubated overnight.

[3] = test system: secreted Gaussia luciferase; experiment: secreted Gaussia luciferase activity in conditioned medium of transfected HeLa cells; assay type: biochemical; conditions: salt in assay buffer, 26 uM Cz, pH 8.1; FIG. 1
Method: HeLa cells were transiently transfected with a plasmid expressing native, secreted Gaussia luciferase and 24 hrs later the conditioned medium was collected. Wells of a 96-well plate were loaded with 20 ul of conditioned medium and assayed for luciferase activity by injecting 60 ul of an assay buffer comprising 26 uM Cz; pH 8.1 plus the salt as indicated in FIG. 1. Results were expressed as a % of the light units obtained in the absence of salt (FIG. 1).

Firefly luciferase = Firefly luciferase (Photinus pyralis, UniProt P08659); conditions: EDTA in lysis buffer, 30 min; FIG. 12
Method: (§1) HeLa cells expressing Firefly or Renilla luciferases were plated into 96-well plates and incubated overnight. Medium was removed and the cells lysed in 20 ul of lysis buffer containing 25 mM Tris pH 8.1; 0.1% NP40; 63.4 uM Na-Oxalate; 5% Glycerol, 150 mM NaCl plus the concentration of EDTA in FIG. 12. Replicate samples were assayed for luciferase activity at 30 min by injecting 30 ul of Firefly assay buffer II containing Firefly substrate followed by 30 ul of Promega's “Stop and Glo” buffer containing Renilla substrate. Results are expressed as a % of the light units obtained in the absence of EDTA (see FIG. 12).

Renilla luciferase = Renilla luciferase (Renilla reniformis, UniProt P27652); conditions: EDTA in lysis buffer, 30 min; FIG. 12
Method: as §1

[4] = test system: non-secreted Gaussia luciferase; experiment: non-secreted Gaussia luciferase activity in HeLa cell lysates; assay type: biochemical; conditions: 50-100 mM urea in lysis buffer, glutathione in both buffers; FIG. 24

Firefly luciferase, sequence (P08659 whole entry): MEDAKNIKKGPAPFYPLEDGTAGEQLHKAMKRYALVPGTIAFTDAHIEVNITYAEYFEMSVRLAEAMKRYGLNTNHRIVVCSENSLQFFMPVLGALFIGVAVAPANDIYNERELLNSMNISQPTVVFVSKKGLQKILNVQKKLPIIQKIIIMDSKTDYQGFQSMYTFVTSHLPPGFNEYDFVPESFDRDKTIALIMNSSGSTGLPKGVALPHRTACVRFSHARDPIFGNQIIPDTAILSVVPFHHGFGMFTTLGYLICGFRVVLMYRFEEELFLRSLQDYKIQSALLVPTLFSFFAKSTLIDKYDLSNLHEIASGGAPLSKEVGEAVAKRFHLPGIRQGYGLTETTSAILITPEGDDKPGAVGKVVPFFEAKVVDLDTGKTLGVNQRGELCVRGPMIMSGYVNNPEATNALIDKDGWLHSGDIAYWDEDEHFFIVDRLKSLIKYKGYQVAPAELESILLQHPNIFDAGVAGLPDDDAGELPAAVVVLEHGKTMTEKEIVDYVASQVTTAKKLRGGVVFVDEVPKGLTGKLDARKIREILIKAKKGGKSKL
Renilla luciferase, sequence (P27652 whole entry): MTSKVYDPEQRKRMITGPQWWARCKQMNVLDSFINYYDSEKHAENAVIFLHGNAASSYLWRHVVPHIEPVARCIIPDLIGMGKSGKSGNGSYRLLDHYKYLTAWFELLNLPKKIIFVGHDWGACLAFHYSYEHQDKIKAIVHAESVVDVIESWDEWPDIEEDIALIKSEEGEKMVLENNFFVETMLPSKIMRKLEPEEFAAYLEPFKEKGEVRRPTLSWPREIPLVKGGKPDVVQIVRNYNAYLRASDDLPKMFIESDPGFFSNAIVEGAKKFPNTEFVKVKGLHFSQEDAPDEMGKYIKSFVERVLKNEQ

C[C@H](CCC(=O)[O-])[C@H]1CC[C@H]2[C@@H]3CC[C@@H]4C[C@H](O)CC[C@]4(C)[C@H]3C[C@H](O)[C@]12C.[Na+] [DOC]
signal intensity with detergent in lysis buffer [1]: do not perform well | light units (% of those obtained using 0.1% NP40) [1]: concentration-dependent inhibition on signal intensity. This effect was most evident | light units (% of those obtained using 0.1% NP40) [2]: concentration-dependent inhibition on signal intensity. This effect was most evident

Triton X100
light units (% of those obtained using 0.1% NP40) [1]: highest signal intensity | light units (% of those obtained using 0.1% NP40) [2]: highest signal intensity

[Cl-].[Na+] [NaCl]
light output (% of light units obtained in the absence of salt) [1]: increased light output compared to no salt | increase in activity between 30 and 120 min lysis [2]: more than 1200%

[Br-].[Na+] [NaBr, sodium bromide]
light output (% of light units obtained in the absence of salt) [3]: higher than with either NaCl or no salt | luciferase activity (RLU) ([1]; NaBr in lysis buffer or assay buffer, final 75 mM, FIG. 2): enhances activity of non-secreted Gaussia luciferase, especially when included in lysis buffer | stability of luciferase activity between 20 and 90 min after onset of cell lysis [1]: far more stable (and therefore more desirable) level of luciferase activity | light output (% of light units obtained in the absence of salt) [1]: superior enhancement to NaCl | increase in activity between 30 and 120 min lysis [2]: performed better than NaCl | light output (% of light units obtained in the absence of salt) ([2]; salt in lysis buffer, assayed 30 min after lysis buffer, FIG. 4): superior enhancement to NaCl

N[C@@H](CCC(=O)N[C@@H](CS)C(=O)NCC(=O)O)C(=O)O [reduced glutathione]
rate at which luciferase acquires maximum activity during cell lysis; signal ([1]; total glutathione and reduced:oxidized ratio varied, 20 or 60 min, FIG. 21): somewhat reduced signal was seen at 60 minutes

NP40
effect of % NP40 in lysis buffer on signal strength ([1]; FIGS. 16A, 16B): signal strength declined with increasing amounts of detergent | signal intensity with detergent in lysis buffer [1]: highest signal intensity | light units (% of those obtained using 0.1% NP40) [1]: highest signal intensity | light units (% of those obtained using 0.1% NP40) [2]: highest signal intensity

O=C(O)CN(CCOCCOCCN(CC(=O)O)CC(=O)O)CC(=O)O [EGTA]
signal intensity [1]: concentration-dependent beneficial effect on signal intensity | signal intensity [2]: concentration-dependent beneficial effect on signal intensity

C[C@H](CCC(=O)NCCC[N+](C)(C)CCCS(=O)(=O)[O-])[C@H]1CC[C@H]2[C@@H]3[C@H](O)C[C@@H]4C[C@H](O)CC[C@]4(C)[C@H]3C[C@H](O)[C@]12C [CHAPS]
signal intensity with detergent in lysis buffer [1]: appeared not to lyse the cells at 0.1% | light units (% of those obtained using 0.1% NP40) [1]: insufficient to lyse the cells | light units (% of those obtained using 0.1% NP40) [2]: insufficient to lyse the cells; also recorded: highest activity for non-secreted Metridia luciferase

O=C(O)CN(CCN(CC(=O)O)CC(=O)O)CC(=O)O [EDTA]
signal intensity [1]: concentration-dependent beneficial effect on signal intensity | signal intensity and stability of signal over time in lysis buffer ([1]; lysis buffer with 150 mM NaBr and varied EDTA, 30 or 120 min, FIGS. 8A, 8B): benefit of higher amounts of EDTA in terms of both signal intensity and the stability of the luciferase signal over time in lysis buffer | stability of luciferase activity between 20 and 90 min after onset of cell lysis [1]: far more stable (and therefore more desirable) level of luciferase activity | signal intensity [2]: concentration-dependent beneficial effect on signal intensity | increase in activity between 30 and 120 min lysis [2]: performed considerably better | light units (% of those obtained in the absence of EDTA) (Firefly luciferase): clearly decreases the activity of Firefly luciferase | light units (% of those obtained in the absence of EDTA) (Renilla luciferase): does not provide the same beneficial effect on signal intensity

NC(N)=O [urea]
increase in signal between 15 and 60 min lysis [4]: increase was less pronounced

O=C(O)CN(CC(=O)O)C1CCCCC1N(CC(=O)O)CC(=O)O (stereo not drawn) [CDTA]
signal intensity [2]: concentration-dependent beneficial effect on signal intensity

CCCCCCCCCCCCCCCC[N+](C)(C)C.[Br-] [CTAB]
effect of cationic detergent on signal intensity ([1]; data not shown, luciferase not specified, stated under Example 15): strong inhibitory effect on signal intensity

CCCCCCCCCCCCOS(=O)(=O)[O-].[Na+] [SDS]
signal intensity with detergent in lysis buffer [1]: do not perform well | light units (% of those obtained using 0.1% NP40) [1]: blocks enzymatic activity; also recorded: concentration-dependent inhibition on signal intensity. This effect was most evident | light units (% of those obtained using 0.1% NP40) [2]: blocks enzymatic activity; also recorded: concentration-dependent inhibition on signal intensity. This effect was most evident
